Results on one compound are retold here after ChEMBL document CHEMBL5370655.

The nature of series [1]: Induction of cell cycle arrest in human H1975-TM cells assessed as accumulation at G2/M phase at 250 nM measured after 24 hrs by RNase A/propidium iodide staining based flow cytometric analysis (reference value: 17.6 %). The series is classed as functional. On the technique in general: A flow cytometer gives signals particle by particle.
Series [2] in a line: Toxicity in BALB/c mouse xenografted with human H1975-TM cells assessed as appearance of lesions in liver at 25 to 100 mg/kg, po measured after 25 days by hematoxylin-eosin staining based analysis. The series is classed as organism-based. As to conditions: in vivo, 600 h, dose 25-100 mg/kg, time 25 day. In general terms: A xenograft is tissue or cells of one species grown in another, often human tumour cells in immunodeficient mice.

The next series has as its system NCI-H1975. The series can be described thus: Antiproliferative activity against human NCI-H1975 cells assessed as inhibition of cell growth measured after 72 hrs by CCK8 assay. The series is classed as functional, cell-based. As to conditions: NCI-H1975, 72 h. On the technique in general: Formazan colour is commonly taken as a measure of viable cells.
Series [3] is described as follows: Oral bioavailability in Sprague-Dawley rat at 50 mg/kg measured upto 24 hrs by HPLC-MS/MS analysis. The series is classed as ADME, organism-based. As to conditions: in vivo.
Series [4] is described as follows: Induction of cell cycle arrest in human H1975-TM cells assessed as accumulation at G2/M phase at 50 nM measured after 24 hrs by RNase A/propidium iodide staining based flow cytometric analysis (reference value: 17.6 %). The series is classed as functional.
Series [5] can be described thus: Downregulation of EGFR phosphorylation in human H1975-TM cells at 1000 nM measured after 24 hrs by Western blot analysis. The series is classed as functional.
In a further series the test system is H1975-TM. The series is described as follows: Downregulation of ERK level in human H1975-TM cells at 50 to 1000 nM measured after 24 hrs by Western blot analysis. The series is classed as functional, cell-based. As to conditions: dose 50-1000 nM.
A short description of series [6]: Induction of cell cycle arrest in human H1975-TM cells assessed as accumulation at S phase at 500 nM measured after 24 hrs by RNase A/propidium iodide staining based flow cytometric analysis (reference value: 18.1 %). The series is classed as functional.
Series [7] can be described thus: Induction of cell cycle arrest in human H1975-TM cells assessed as accumulation at S phase at 250 nM measured after 24 hrs by RNase A/propidium iodide staining based flow cytometric analysis (reference value: 18.1 %). The series is classed as functional.
Series [8] can be described thus: Inhibition of colony formation in human H1975-TM cells at 250 nM incubated for 10 days by crystal violet staining based analysis. As to conditions: time 10 day. The series is classed as functional.

SMILES strings stand for the structures. Calls of active or inactive are those of the source. The rule behind the calls is not given here.

For the compound `CCS(=O)(=O)N1CCC(c2nc(-c3ccc(F)cc3)c(-c3ccnc(Nc4ccc5c(ccn5CCN(C)C)c4)n3)s2)CC1`, the Activity is on record as 14% in series [1]; “Non-Toxic” in [2]; 14.4% in [4]; 100% in series [5]; 10.3% in series [6]; 15.7% in series [7]. Besides, the half-inhibitory concentration (IC50) in the series on NCI-H1975 came to 210 nM. Besides, in [3], the bioavailability worked out at 30.7%. Moreover, in the series on H1975-TM, the result was Active. In addition, in series [8], the “inhibition (INH)” value came out at 100%.

What is called IC50 is the concentration that gives 50% inhibition. A word on the bioavailability: it is dose-corrected exposure relative to a reference, in per cent. A high value points to much systemic uptake.
